Where two headings read alike, the source gives them in different places.
Assays:
[1] = target: T1, cloned recombinant human HDAC-1 (Homo sapiens, UniProt Q13547); test: Human HDAC-1 enzyme inhibition, Assay 1 ([3H]-acetylated histone substrate, scintillation counting); format: biochemical
T1 construct: made in house; host or cells: Baculovirus insect cell expression system
In short: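 Recombinant human HDAC-1 from baculovirus-infected insect cells, preincubated with compound 30 min at 4° C. before reaction. Released [3H]-acetic acid extracted with ethyl acetate and counted by scintillation. IC50 taken from dose-response curves as concentration giving half-maximal inhibition.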

HCT116 cells = test: MTT assay; format: cell-based; settings: Homo sapiens, HCT116 cells, 72 hours
In short: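 Cells plated one day before dosing, then exposed to compound 72 h at 37 °C, 5% CO2. MTT at 0.5 mg/ml final for 4 h, solubilized in DMF/SDS buffer pH 4.7; OD converted to cell number from a standard growth curve.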

[2] = test system: acetylated histone H-4 in T24 human bladder cancer cells; test: Histone H4 acetylation in whole cells by immunoblots; format: cell-based; settings: 16 h
In short: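 T24 cells were treated with HDAC inhibitors for 16 h; […] total histone protein was resolved by SDS/PAGE and immunoblotted with polyclonal anti-acetylated H4 antibody. ECL detection, with signal quantified by densitometry.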

[3] = Table 5F, read-out: Human HDAC-1 IC50
[4] = T-24, Table 5F, read-out: H4 Ac (T24) EC50
[5] = Table 5E, read-out: Human HDAC-1 IC50
[6] = T-24, Table 5E, read-out: H4 Ac (T24) EC50
[7] = Table 5a, read-out: Human HDAC-1 IC50
[8] = T-24, Table 5a, read-out: H4Ac (T24) EC50
[9] = Table 5d, read-out: HDAC-1 IC50
[10] = T-24, Table 5d, read-out: H4Ac(T24) EC50

T1 sequence (Q13547 whole entry): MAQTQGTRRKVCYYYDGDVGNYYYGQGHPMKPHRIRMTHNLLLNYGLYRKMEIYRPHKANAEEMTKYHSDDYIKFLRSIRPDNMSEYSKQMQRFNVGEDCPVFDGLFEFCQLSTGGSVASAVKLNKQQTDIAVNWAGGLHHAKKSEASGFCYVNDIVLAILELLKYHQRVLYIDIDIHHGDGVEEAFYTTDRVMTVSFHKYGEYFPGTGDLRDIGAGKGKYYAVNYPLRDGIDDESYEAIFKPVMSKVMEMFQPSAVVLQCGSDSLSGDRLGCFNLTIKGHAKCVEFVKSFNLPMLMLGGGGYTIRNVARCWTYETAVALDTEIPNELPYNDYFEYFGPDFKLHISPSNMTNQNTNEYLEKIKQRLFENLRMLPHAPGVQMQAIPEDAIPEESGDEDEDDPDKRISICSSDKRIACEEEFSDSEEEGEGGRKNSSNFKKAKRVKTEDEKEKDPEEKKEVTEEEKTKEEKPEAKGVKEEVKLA

Structure (SMILES)	IC50 [1, 3] [nM]	IC50 (HCT116 cells; HCT-116, 72 h, Table 5F) [nM]	EC50 [2, 4] [nM]	further results
Nc1ccccc1NC(=O)c1ccc(CNc2nc(-c3ccc(Cl)cc3)cs2)cc1 [Cpd 321, N-(2-Amino-phenyl)-4-{[4-(4-chloro-phenyl)-thiazol-2-ylamino]-methyl}-benzamide]	500	300	5000	–
Cc1nc2ccccc2c(=O)n1Cc1ccc(C(=O)Nc2ccccc2N)cc1 [Cpd 337, N-(2-Amino-phenyl)-4-(2-methyl-4-oxo-4H-quinazolin-3-ylmethyl)-benzamide]	3000	600	1000	–
CC(=O)Nc1ccc(NCc2ccc(C(=O)Nc3ccccc3N)cc2)cc1 [Cpd 401, 4-[(4-Acetylamino-phenylamino)methyl]-N-(2-amino-phenyl)-benzamide]	6000	300	2000	–
Nc1ccccc1NC(=O)c1ccc(CN2C(=O)c3ccccc3C2=O)cc1 [Cpd 149, N-(2-Amino-phenyl)-4-(1,3-dioxo-1,3-dihydro-isoindol-2-ylmethyl)-benzamide]	–	–	–	IC50 [1, 5]: 1000 nM; IC50 (HCT116 cells; HCT-116, 72 h, Table 5E): 5000 nM; EC50 [2, 6]: 5000 nM
COc1ccc(CNc2ccc(C(=O)Nc3ccccc3N)cc2)cc1 [Cpd 414, N-(2-Amino-phenyl)-4-(4-methoxy-benzylamino)-benzamide]	3000	1000	1000	–
Nc1ccccc1NC(=O)c1ccc(-c2ccc(CNCc3ccccn3)s2)cc1 [Cpd 466]	3000	2000	1000	–
CSc1ccc(NCc2ccc(C(=O)Nc3ccccc3N)cc2)cc1 [Cpd 437]	3000	400	1000	–
Nc1ccccc1NC(=O)c1ccc(CNc2cc(-c3ccccc3)[nH]n2)cc1 [Cpd 468, N-(2-Amino-phenyl)-4-[(5-phenyl-1H-pyrazol-3-ylamino)-methyl]-benzamide]	2000	8000	< 1000	–
COc1cc(NCc2ccc(C(=O)Nc3ccccc3N)cc2)c(C(C)=O)cc1OC [Cpd 441, 4-[(2-Acetyl-4,5-dimethoxy-phenylamino)-methyl]-N-(2-amino-phenyl)-benzamide]	2000	800	2000	–
Nc1ccccc1NC(=O)c1ccc(COc2ccc3ccccc3n2)cc1 [Cpd 396, N-(2-Amino-phenyl)-4-(quinolin-2-yloxymethyl)-benzamide]	2000	700	5000	–
Nc1ccccc1NC(=O)c1ccc(CNc2ncc(Br)s2)cc1 [Cpd 467, N-(2-Amino-phenyl)-4-[(5-bromo-thiazol-2-ylamino)-methyl]-benzamide]	4000	400	2000	–
COc1ccc(NCc2ccc(/C=C/C(=O)Nc3ccccc3N)cc2)cn1 [Cpd 109, N-(2-Amino-phenyl)-3-{4-[(6-methoxy-pyridin-3-ylamino)-methyl]-phenyl}-acrylamide]	–	–	–	IC50 ([1]; Table 5c, read-out: Human HDAC-1 IC50): 5000 nM; IC50 (HCT116 cells; HCT-116, 72 h, Table 5c): 8000 nM; EC50 ([2]; T-24, Table 5c, read-out: H4Ac (T24) EC50): 15000 nM
Nc1nc(NCc2ccc(C(=O)Nc3ccccc3N)cc2)nc(N2CCN(c3ccccc3)CC2)n1 [Cpd 11]	–	–	–	IC50 [1, 7]: 2000 nM; IC50 (HCT116 cells; HCT-116, 72 h, Table 5a): 600 nM; EC50 [2, 8]: 2000 nM
Cc1sc2ncn(Cc3ccc(C(=O)Nc4ccccc4N)cc3)c(=O)c2c1C [compound 259, N-(2-Amino-phenyl)-4-(5,6-dimethyl-4-oxo-4H-thieno[2,3-d]pyrimidin-3-ylmethyl)-benzamide]	3000	300	1000	–
Nc1ccccc1NC(=O)/C=C/c1ccc(NCCNc2ncccn2)nc1 [Cpd 521, N-(2-Amino-phenyl)-3-{6-[2-(pyrimidin-2-ylamino)-ethylamino]-pyridin-3-yl}-acrylamide]	–	–	–	IC50 [1, 9]: 5000 nM; IC50 (HCT116 cells; HCT-116, Table 5d): 2000 nM; EC50 [2, 10]: 10000 nM
Nc1nc(NCc2ccccc2)nc(NCc2ccc(C(=O)Nc3ccccc3N)cc2)n1 [Cpd 29, 4-[(4-Amino-6-benzylamino-[1,3,5]triazin-2-ylamino)-methyl]-N-(2-amino-phenyl)-benzamide]	–	–	–	IC50 [1, 7]: 2000 nM; IC50 (HCT116 cells; HCT-116, 72 h, Table 5a): 2000 nM; EC50 [2, 8]: 1000 nM
COc1cc(NC(C)c2ccc(/C=C/C(=O)Nc3ccccc3N)cc2)cc(OC)c1OC (stereo not drawn) [Cpd 518, N-(2-Amino-phenyl)-3-{4-[1-(3,4,5-trimethoxy-phenylamino)-ethyl]-phenyl}-acrylamide]	–	–	–	IC50 [1, 9]: 4000 nM; IC50 (HCT116 cells; HCT-116, Table 5d): 2000 nM; EC50 [2, 10]: 5000 nM

Structure (SMILES)	IC50 [1, 3] [nM]	IC50 (HCT116 cells; HCT-116, 72 h, Table 5F) [nM]	EC50 [2, 4] [nM]	further results
Nc1ccccc1NC(=O)c1ccc(NCCNc2ccccc2)nc1 [Cpd 460, N-(2-Amino-phenyl)-6-(2-phenylamino-ethylamino)-nicotinamide]	3000	1000	1000	–
Nc1nc(NCc2ccc(C(=O)Nc3ccccc3N)cc2)nc(N2Cc3ccccc3C2)n1 [Cpd 28]	–	–	–	IC50 [1, 7]: 2000 nM; IC50 (HCT116 cells; HCT-116, 72 h, Table 5a): 500 nM; EC50 [2, 8]: 1000 nM
COc1cc(/C=C\c2ccc(/C=C/C(=O)Nc3ccccc3N)cc2)cc(OC)c1OC [Cpd 537, N-(2-Amino-phenyl)-3-{4-[2-(3,4,5-trimethoxy-phenyl)-vinyl]-phenyl}-acrylamide]	–	–	–	IC50 [1, 9]: 11000 nM; IC50 (HCT116 cells; HCT-116, Table 5d): 2000 nM; EC50 [2, 10]: > 25000 nM
COc1ccc(C2C=CC(c3ccc(C(=O)Nc4ccccc4N)cc3)O2)cc1 (stereo not drawn) [Cpd 367, N-(2-Amino-phenyl)-4-[5-(4-methoxy-phenyl)-2,5-dihydro-furan-2-yl]-benzamide]	6000	2000	5000	–
COc1cc(NCc2ccc(C(=O)Nc3cscc3N)cc2)cc(OC)c1OC [Cpd 574, N-(4-Amino-thiophen-3-yl)-4-[(3,4,5-trimethoxy-phenylamino)-methyl]-benzamide]	13000	700	3000	–
COc1ccc(NCc2ccc(C(=O)Nc3cc(F)c(F)cc3N)cc2)cc1OC [Cpd 454, N-(2-Amino-4,5-difluoro-phenyl)-4-[(3,4-dimethoxy-phenylamino)-methyl]-benzamide]	4000	2000	5000	–
Nc1nc(NCc2ccc(C(=O)Nc3ccccc3N)cc2)nc(NC2c3ccccc3-c3ccccc32)n1 [Cpd 14, 4-{[4-Amino-6-(9H-fluoren-9-ylamino)-[1,3,5]triazin-2-ylamino]-methyl)-N-(2-amino-phenyl)-benzamide]	–	–	–	IC50 [1, 7]: 300 nM; IC50 (HCT116 cells; HCT-116, 72 h, Table 5a): 1000 nM; EC50 [2, 8]: 5000 nM
CC(=O)Nc1sc(Cc2ccc(C(=O)Nc3ccccc3N)cc2)c(C)c1C#N [compound 281, N-(2-Amino-phenyl)-4-(5-acetylamino-4-cyano-3-methyl-thiophen-2-ylmethyl)-benzamide]	500	600	1000	–
Nc1ccccc1NC(=O)c1ccc(Cc2noc(-c3ccncc3)n2)cc1 [Cpd 358, N-(2-Amino-phenyl)-4-(5-pyridin-4-yl-[1,2,4]oxadiazol-3-ylmethyl)-benzamide]	3000	1000	2000	–
Nc1ccccc1NC(=O)c1ccc(CNc2nc(F)c(F)cc2F)cc1 [Cpd 350]	2000	1000	5000	–
Nc1nc(NCCc2ccccc2)nc(NCc2ccc(C(=O)Nc3ccccc3N)cc2)n1 [Cpd 20, 4-[(4-Amino-6-phenethylamino-[1,3,5]triazin-2-ylamino)-methyl]-N-(2-amino-phenyl)-benzamide]	–	–	–	IC50 [1, 7]: 500 nM; IC50 (HCT116 cells; HCT-116, 72 h, Table 5a): 300 nM; EC50 [2, 8]: 1000 nM
CCCCn1cnc2c(NCc3ccc(C(=O)Nc4ccccc4N)cc3)nc(N)nc21 [Cpd 330, 4-[(2-Amino-9-butyl-9H-purin-6-ylamino)-methyl]-N-(2-amino-phenyl)-benzamide]	3000	2000	1000	–
COc1cc2ncn(Cc3ccc(C(=O)Nc4ccccc4N)cc3)c(=O)c2cc1OC [Cpd 338, N-(2-Amino-phenyl)-4-(6,7-dimethoxy-4-oxo-4H-quinazolin-3-ylmethyl)-benzamide]	2000	500	3000	–
Nc1ccccc1NC(=O)c1ccc(CSc2nccc(C(F)(F)F)n2)cc1 [Cpd 379, N-(2-Amino-phenyl)-4-(4-trifluoromethyl-pyrimidin-2-ylsulfanylmethyl)-benzamide]	2000	600	15000	–
Nc1ccccc1NC(=O)c1ccc(NCc2nc3ccccc3[nH]2)cc1 [Cpd 334]	8000	200	1000	–
Nc1ccccc1NC(=O)c1ccc(CSc2nc3ccccc3s2)cc1 [Cpd 172]	–	–	–	IC50 [1, 5]: 400 nM; IC50 (HCT116 cells; HCT-116, 72 h, Table 5E): 1000 nM; EC50 [2, 6]: 3000 nM
COCCN1C(=O)c2ccc(NCc3ccc(C(=O)Nc4ccccc4N)cc3)cc2C1=O [Cpd 458, N-(2-Amino-phenyl)-4-([2-(2-methoxy-ethyl)-1,3-dioxo-2,3-dihydro-1H-isoindol-5-ylamino]-methyl}-benzamide]	3000	300	2000	–

From patent US7868204B2, “Inhibitors of histone deacetylase” (MethylGene Inc., priority 2001, dated 2011)
